The values below come from patent publication US12648939B2, “Compounds and methods for treating spasticity” (Lexicon Pharmaceuticals, Inc., priority 2022, dated 2026).

Molecules are shown by their SMILES.

The test system of assay [1] is myelin oligodendrocyte glycoprotein (MOG)-induced murine model of experimental autoimmune encephalomyelitis (EAE). In words: EAE clinical score and AUC. It counts as in vivo, C57BL/6J mice. The following applies: 10 mg/kg or 3 mg/kg PO QD. The procedure: (§1) The effect of Compound 1 on spasticity was evaluated in a myelin oligodendrocyte glycoprotein (MOG)-induced murine model of experimental autoimmune encephalomyelitis (EAE), a central nervous system (CNS) autoimmune demyelinating disease that mimics many of the clinical and pathologic features of multiple sclerosis. Gilgun-Sherki Y., et al., Neurosciences Research 47:201-207, 2003.
(§2) Study Design and Results. This study used sixty female young adult (10-11 weeks at study initiation) C57BL/6J mice sourced from Envigo RMS (Israel), Ltd. The animals were divided into five experimental groups:
(§3) FIG. 1 provides a representation of the study. Following baseline measurements, the MOG murine model begins with a sensitization period induced by the single subcutaneous (SC) injection of MOG emulsified in Complete Freund's adjuvant (CFA) on Study Day 0, followed by intraperitoneal (IP) supplemental immunostimulation with pertussis toxin (PT) carried out once at the day of EAE induction (study day 0) and once again 48 hours later (on study day 2). […] Mechanical allodynia was tested using the Von Frey test at Baseline and on Day 9 at various timepoints. For evaluation of spasticity, transcranial motor-evoked potentials (tcMEPs) were tested at Baseline and on Days 9 and 21-22 (half of the animals on each day). All animals were administered treatment once daily, starting on Day 0 until Day 22. […]

Assay [2] concerns rat model of spasticity induced by complete spinal cord transection. The assay can be described thus: Rate-dependent depression (RDD) of the H-reflex in SCI rats. It counts as in vivo. The following applies: for duration of action (H-reflex RDD): recordings up to 6 hours. The method, then: The efficacy of Compound 1 was measured in a rat model of spasticity induced by complete spinal cord transection. To induce muscle spasticity, a model of complete spinal cord transection cord at the eighth thoracic (T8) vertebral level was used. Five weeks after the Spinal Cord Injury (SCI), the rats were orally (P.O.) treated with Compound 1 (3, 10, or 30 mg/kg), Baclofen (4.5 mg/kg). Tizanidine (3 mg/kg) or vehicles alone (0.9% NaCl, Compound 1 vehicle), and the degree of spasticity response was measured using the rate-dependent depression (RDD) of the Hoffmann's reflex (H-reflex) and spasms induction.
Materials and Methods. […] One hundred and fifty-one SCI rats were maintained up to the end of the 5th post-injury week. One hundred and forty rats were submitted to P.O. administration of the test compounds and EMG analysis.
The rat was firmly restrained to immobilize the head. In an upright position, the gavage needle was passed along the side of the mouth. Following the roof of the mouth, the needle was advanced into the esophagus and toward the stomach. After the needle is passed to the correct length, the compound was slowly injected. The rats were randomly assigned to one of the test groups:
Electroneuromyographical recordings were performed in the right hind limbs before and 1, 2, 3, 4, 5 and 6 hours after P.O. administration.
Electromyographical (EMG) signals were amplified (100×) and bandpass filtered (300 Hz to 5 kHz; A-M Systems Amplifier. Everett, Washington; model 1700) before sampling at 13.5 kHz (Digidata 1440A, Molecular Devices). The tibial nerve was stimulated by using square pulses with increasing stimulus intensities (0.2 mA increments starting from 0.2 mA, 0.2 Hz, 0.2 ms; A-M systems stimulator, Model 2100) to obtain recruitment curves.
RDD of the H-reflex: To induce sedation, intraperitoneal injection of ketamine (100 mg/kg; Imalgen®) was used to suppress voluntary movements and increase muscle tone. Rats thorax and hindlimbs were secured on a heating pad with adhesive tape. The following series of measurements were repeated throughout the experiment: • 1. Hmax and Mmax determination: the tibial nerve was stimulated for 0.2 ms at 0.2 Hz with increasing current intensities (1-6 mA in 0.1 mA increments) until Mmax was stabilized. • 2. RDD measurement: the intensity necessary to obtain a maximal H-reflex was used for trains of 13 stimulations at 0.2, 1, 2 and 5 Hz with 2 min intervals between each train of stimulations. A whole series of measurements lasted about 15 minutes. • 3. Determination of the level of RDD: at the different frequencies, responses to the first three stimulations necessary for the depression to occur were discarded, and all the responses were expressed as percentages relative to the mean response at 0.2 Hz in the same series of measurements.
Data analysis: H-reflex RDDs and areas under the curves (AUC) were determined as a measurement of spasticity and analyzed at each time point and for each frequency with Mann-Whitney test or with Kruskal Wallis one-way analysis of variance (ANOVA) test, followed by Dunn's multiple comparisons test. P<0.05 was considered significant. Significant differences were marked with asterisks (*) according to their respective P-values: values were expressed as the mean value±standard error of the mean (SEM) in all graphs. All statistical analyses were performed using GraphPad Prism 7 (San Diego, California, USA).
Modulation of the RDD of the H-reflex. The Hoffmann reflex was used to assess primary (type 1a) afferents-mediated motoneuronal excitability in rats suffering from spasticity. Electromyograms typically show two responses: an initial M wave (FIG. 6B) resulting from the direct activation of motor axons (FIG. 6A-1), and a delayed H wave (FIG. 6B) resulting from the monosynaptic activation of motoneurons by the afferents (FIG. 6A-2). […]

Assay [3] relates to myelin oligodendrocyte glycoprotein (MOG)-induced murine model of experimental autoimmune encephalomyelitis (EAE). The assay can be described thus: Body weight in MOG-induced EAE model. It counts as in vivo, C57BL/6J mice. Conditions: throughout the study. The procedure: as §1, §2
Each group received a dose volume of 5 ml/kg, and the regimen was performed daily from day 0 to 22 of the study, QD. On study day 21, half of the animals in each group was treated and tested for electrophysiology and electromyography (EMG) two hours post dosing. On study day 22, the same was performed with the remaining half of the animals in each group.
as §3, with “22. Animals in Group 1 received oral (PO) treatment with the vehicle. Animals in Group 2 were treated with Fingolimod (FTY720; positive control) at a dose level of 3 mg/kg. PO. Animals in Groups 3 and 4 were treated with the test item Compound 1 at a dose level of 10 mg/kg or 3 mg/kg, PO, respectively.” for “22.”

`CC(C)C[C@](C)(N)COc1ccc(-c2ccnc(C(F)F)c2)nc1C(F)F` [Compound 1, (S)-1-((2′,6-bis(difluoromethyl)-[2,4′-bipyridin]-5-yl)oxy)-2,4-dimethylpentan-2-amine]: the “clinical score compared to the vehicle” value in assay [1] is “did not result in a significant reduction”. For the same molecule, the “mean relative amplitudes of the H-reflex (RDD), effect on spasticity” value in assay [2] (single P.O. 3 mg/kg, SCI rats 5 weeks after injury) was “did not appear to affect spasticity”. The “onset of action (H-reflex RDD)” value in assay [2] (single P.O. 10 mg/kg) and in assay [2] (single P.O. 30 mg/kg) was 1 h each time. Moreover, the “mean relative amplitudes of the H-reflex (RDD)” value in assay [2] (single P.O. 10 mg/kg, SCI rats 5 weeks after injury) is listed as “significantly reduced”; in assay [2] (single P.O. 30 mg/kg, SCI rats 5 weeks after injury) it was “significantly reduced”. Further, the “duration of action (H-reflex RDD)” value in assay [2] (single P.O. 10 mg/kg) was “at least 6 hour”; in assay [2] (single P.O. 30 mg/kg) it was “at least 6 hours”. The “BW compared to vehicle group” value in assay [3] (3 mg/kg PO QD) and in assay [3] (10 mg/kg PO QD) was “not significantly different from the vehicle group” in each case.
